Measurements reported in patent publication US8691828B2, “Thienopyrimidine as CDC7 kinase inhibitors” (Takeda Pharmaceutical Company Limited, priority 2009, dated 2014).

How the values were obtained:
[1] = biological target: T1, cdc7/Dbf4 (Homo sapiens, UniProt O00311); assay: Determination of cdc7 kinase inhibitory activity (HTRF Transcreener ADP assay); type: biochemical; conditions: test compound 1 μM; 1.0 μM ATP, 10 μg/ml MCM2, 0.1 μg/ml cdc7/Dbf4, 90 min at room temperature; read-out: Inhibitory rate (%) at 1 μM
T1 construct: Full-length cdc7 co-expressed with full-length Dbf4; purchased Carna Bioscience, Inc. (Kobe, Japan)
T1 sequence (O00311 whole entry): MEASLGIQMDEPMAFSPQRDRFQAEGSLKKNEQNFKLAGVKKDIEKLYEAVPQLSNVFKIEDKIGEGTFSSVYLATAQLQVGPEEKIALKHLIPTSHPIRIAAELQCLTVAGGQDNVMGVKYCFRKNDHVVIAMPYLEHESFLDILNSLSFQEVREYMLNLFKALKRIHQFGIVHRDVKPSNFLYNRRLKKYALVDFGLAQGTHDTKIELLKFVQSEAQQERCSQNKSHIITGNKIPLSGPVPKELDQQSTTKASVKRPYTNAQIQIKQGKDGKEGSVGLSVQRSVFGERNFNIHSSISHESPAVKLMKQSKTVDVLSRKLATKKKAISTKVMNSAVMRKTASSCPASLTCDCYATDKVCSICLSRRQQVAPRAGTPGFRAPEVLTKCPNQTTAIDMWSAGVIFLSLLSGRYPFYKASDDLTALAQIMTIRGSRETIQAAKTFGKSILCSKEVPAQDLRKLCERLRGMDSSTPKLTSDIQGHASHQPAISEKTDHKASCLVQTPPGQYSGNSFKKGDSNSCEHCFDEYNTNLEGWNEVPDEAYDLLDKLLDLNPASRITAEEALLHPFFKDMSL
T1 sequence (Q9UBU7 whole entry partner): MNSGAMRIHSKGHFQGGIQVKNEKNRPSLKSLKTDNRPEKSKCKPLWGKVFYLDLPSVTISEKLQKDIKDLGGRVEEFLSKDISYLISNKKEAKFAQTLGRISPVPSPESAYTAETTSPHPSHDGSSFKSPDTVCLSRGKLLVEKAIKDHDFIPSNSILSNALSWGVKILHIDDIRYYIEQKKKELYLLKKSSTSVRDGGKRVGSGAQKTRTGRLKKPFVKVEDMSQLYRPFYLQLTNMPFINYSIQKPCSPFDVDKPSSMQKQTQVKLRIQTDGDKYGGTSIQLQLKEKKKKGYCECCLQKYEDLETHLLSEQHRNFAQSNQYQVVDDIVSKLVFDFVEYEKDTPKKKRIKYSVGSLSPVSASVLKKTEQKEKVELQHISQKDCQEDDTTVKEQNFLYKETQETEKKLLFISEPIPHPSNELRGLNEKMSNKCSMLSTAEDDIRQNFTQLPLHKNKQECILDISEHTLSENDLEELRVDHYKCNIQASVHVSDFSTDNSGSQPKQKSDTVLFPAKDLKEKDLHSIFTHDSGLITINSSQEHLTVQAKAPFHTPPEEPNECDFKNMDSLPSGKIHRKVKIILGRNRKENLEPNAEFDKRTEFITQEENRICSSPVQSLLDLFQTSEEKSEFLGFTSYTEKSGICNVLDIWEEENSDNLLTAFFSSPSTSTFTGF
Procedure: Full-length cdc7 co-expressed with full-length Dbf4 was purchased from Carna Bioscience, Inc. (Kobe, Japan). Homogeneous time-resolved fluorescence (HTRF) Transcreener ADP assay (Cisbio Inc., MA., U.S.A.) was used for detecting cdc7/Dbf4 kinase activity. Reactions were performed in kinase buffer (20 mM HEPES, pH 7.5, 10 mM magnesium acetate, 1 mM dithiothreitol) containing 1.0 μM ATP, 10 μg/ml MCM2, 0.1 μg/ml cdc7/Dbf4 for 90 min at room temperature. Free ADP from the ATP hydrolysis reaction was detected by the monoclonal ADP antibody labeled with Eu^3+-Cryptate, which competes with both native ADP and d2-coupled ADP. The TR-FRET signal was detected by EnVision (PerkinElmer Inc., MA, U.S.A.). Cdc7 kinase inhibitory rate (%) of the test compound was calculated by the following formula: Inhibitory rate(%)=(1−(count of test compound−blank)÷(control−blank))×100
The count of the solution reacted without addition of the compound was used as a “control”, and the count of the solution without the compound and cdc7/Dbf4 was used as a “blank”.

[2] = system: Colo205 cells; assay: Determination of cell proliferation inhibitory activity (Cell Titer-Glo Luminescent Cell Viability Assay); type: cell-based; conditions: Homo sapiens, COLO 205, 72 h, test compound 1 μM, incubation for 3 days, cellular ATP content, read-out: Inhibitory rate (%) at 1 μM
Procedure: Cell proliferation was measured by using Cell Titer-Glo Luminescent Cell Viability Assay (Promega, Wis., USA,). The CellTiter-Glo Luminescent Cell Viability Assay is a homogeneous method of determining the number of viable cells in culture based on quantitation of the ATP present, which signals the presence of metabolically active cells. Colo205 cells (American Type Culture Collection) were sown at 3.0×10^3 cells/well to a 96 well microplate and cultured in an incubator (37° C., 5% carbon dioxide). On the following day, 100 μl of a solution of each test compound, which was previously diluted, was added. According to the instruction manual from vender, cellular ATP content of final treatment day was measured. After incubation for 3 days, solution of Cell Titer-Glo Luminescent Cell Viability Assay was added to each well and incubated for approximately 15 min at room temperature. Luminescence of each well was measured by ARVO Light (PerkinElmer Inc., MA, USA). Taking as 100% the ATP content for the none compound treatment control group, the ratio of the residual ATP content for each treatment group was determined.

SMILES	inhibition at 1 µM [1] [%]	inhibition at 1 µM [2] [%]
Cc1[nH]ncc1-c1cc2c(s1)C(=O)NC(C)(CC(F)(F)F)N2C (stereo not shown) [Example 104, 1,2-dimethyl-6-(5-methyl-1H-pyrazol-4-yl)-2-(2,2,2-trifluoroethyl)-2,3-dihydrothieno[3,2-d]pyrimidin-4(1H)-one]	101	62.9
O=C1NC2(CCCCC2)Nc2cc(-c3ccncc3)sc21 [Example 6, 6′-(pyridin-4-yl)-1′H-spiro[cyclohexane-1,2′-thieno[3,2-d]pyrimidin]-4′(3′H)-one]	98.5	
CCN1c2cc(-c3cn[nH]c3C)sc2C(=O)NC1(C)C [Example 114, 1-ethyl-2,2-dimethyl-6-(5-methyl-1H-pyrazol-4-yl)-2,3-dihydrothieno[3,2-d]pyrimidin-4(1H)-one]		67.4
CC1(CC(F)(F)F)NC(=O)c2sc(-c3ccncc3)cc2N1 (stereo not shown) [Example 22, 2-methyl-6-(pyridin-4-yl)-2-(2,2,2-trifluoroethyl)-2,3-dihydrothieno[3,2-d]pyrimidin-4(1H)-one]	97.1	
CCN1c2cc(-c3ccncc3)sc2C(=O)NC1(C)C [Example 15, 1-ethyl-2,2-dimethyl-6-(pyridin-4-yl)-2,3-dihydrothieno[3,2-d]pyrimidin-4(1H)-one]	97.6	
Cc1[nH]ncc1-c1cc2c(s1)C(=O)NC(C)(C)N2CC(F)F [Example 115, 1-(2,2-difluoroethyl)-2,2-dimethyl-6-(5-methyl-1H-pyrazol-4-yl)-2,3-dihydrothieno[3,2-d]pyrimidin-4(1H)-one]		66.1
CC1(C)NC(=O)c2sc(-c3cn[nH]c3)cc2N1 [Example 34, 2,2-dimethyl-6-(1H-pyrazol-4-yl)-2,3-dihydrothieno[3,2-d]pyrimidin-4(1H)-one]	104	
CCN1c2cc(-c3ccncc3)sc2C(=O)NC12CCCC2 [Example 27, 1′-ethyl-6′-(pyridin-4-yl)-1′H-spiro [cyclopentane-1,2′-thieno[3,2-d]pyrimidin]-4′(3′H)-one]	101	59.6
O=C1NC2(CCN(C(=O)OCc3ccccc3)CC2)Nc2cc(-c3ccncc3)sc21 [Example 9, benzyl 4′-oxo-6′-(pyridin-4-yl)-3′,4′-dihydro-1′H-spiro[piperidine-4,2′-thieno[3,2-d]pyrimidine]-1-carboxylate]	103	
Cc1[nH]ncc1-c1cc2c(s1)C(=O)NC1(CCCCC1F)N2 (stereo not shown) [Example 122, 2-fluoro-6′-(5-methyl-1H-pyrazol-4-yl)-1′H-spiro [cyclohexane-1,2′-thieno[3,2-d]pyrimidin]-4′(3′H)-one]	91.8	48.9
